Data: PubChem BioAssay (NCI)
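The compound was tested at five concentrations on cells cultured in 96-well plates, with a 48-hour exposure period. GI50 marks 50% less growth. At the TGI there is no net growth.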

Columns and labels:
Assay in all cases: DTP human tumour cell line panel, 48 h
HOP-62 NSCLC = system: HOP-62 NSCLC
HT29 colon = system: HT29 colon
LOX IMVI melanoma = system: LOX IMVI melanoma
NCI-H23 lung = system: NCI-H23 lung
SK-MEL-2 melanoma = system: SK-MEL-2 melanoma
UACC-257 melanoma = system: UACC-257 melanoma
UO-31 renal = system: UO-31 renal
HCT-15 colon = system: HCT-15 colon
DU-145 prostate = system: DU-145 prostate
MCF7 breast = system: MCF7 breast

Compound: CNC(=O)NCCN1N=C(C)/C(=C\c2ccccc2)CC1=O
- TGI (HOP-62 NSCLC): > 100 µM
- TGI (HT29 colon): > 100 µM
- TGI (LOX IMVI melanoma): > 100 µM
- TGI (NCI-H23 lung): > 100 µM
- TGI (SK-MEL-2 melanoma): > 100 µM
- TGI (UACC-257 melanoma): > 100 µM
- TGI (UO-31 renal): > 100 µM

Compound: CCc1cccc(NC(=O)c2cc(/C=C/c3ccccc3)[nH]c(=S)n2)c1
- TGI (HCT-15 colon): > 100 µM
- TGI (HOP-62 NSCLC): > 100 µM
- TGI (HT29 colon): > 100 µM
- TGI (NCI-H23 lung): > 100 µM
- TGI (SK-MEL-2 melanoma): > 100 µM
- TGI (UACC-257 melanoma): > 100 µM
- TGI (UO-31 renal): > 100 µM

Compound: Nc1cc(N)c2nc(-c3ccccc3)c(NCc3ccc(Cl)c(Cl)c3)nc2c1
- GI50 (DU-145 prostate): 16.2 µM
- TGI (DU-145 prostate): 33.4 µM
- GI50 (HCT-15 colon): 4.64 µM
- TGI (HCT-15 colon): > 100 µM
- GI50 (HOP-62 NSCLC): 15.7 µM
- TGI (HOP-62 NSCLC): 31.9 µM
- GI50 (MCF7 breast): 12.4 µM
- TGI (MCF7 breast): 54.3 µM
- GI50 (NCI-H23 lung): 14.2 µM
- TGI (NCI-H23 lung): 27.8 µM
- GI50 (SK-MEL-2 melanoma): 1.91 µM
- TGI (SK-MEL-2 melanoma): 4.26 µM
- GI50 (UACC-257 melanoma): 4.53 µM
- TGI (UACC-257 melanoma): 15.7 µM
- GI50 (UO-31 renal): 4.17 µM
- TGI (UO-31 renal): > 100 µM

Compound: CCc1ccccc1NC(=O)C(=O)C(C#N)c1c(Cl)cccc1Cl (configuration not stated)
- TGI (HCT-15 colon): > 100 µM
- TGI (HT29 colon): > 100 µM
- TGI (LOX IMVI melanoma): > 100 µM
- TGI (NCI-H23 lung): > 100 µM
- TGI (SK-MEL-2 melanoma): > 100 µM
- TGI (UACC-257 melanoma): > 100 µM
- TGI (UO-31 renal): > 100 µM

Compound: Cc1cn2c(/C=C3\C(=O)N(C)c4ccc(Cl)cc43)c(C)nc2s1
- GI50 (HCT-15 colon): 4.03 µM
- TGI (HCT-15 colon): > 100 µM
- GI50 (HOP-62 NSCLC): 5.6 µM
- TGI (HOP-62 NSCLC): 72 µM
- GI50 (HT29 colon): 1.9 µM
- TGI (HT29 colon): 12 µM
- GI50 (LOX IMVI melanoma): 5.05 µM
- TGI (LOX IMVI melanoma): > 100 µM
- GI50 (MCF7 breast): 7.01 µM
- TGI (MCF7 breast): 55.5 µM
- GI50 (NCI-H23 lung): 3.71 µM
- TGI (NCI-H23 lung): 27.3 µM
- GI50 (SK-MEL-2 melanoma): 6.81 µM
- TGI (SK-MEL-2 melanoma): > 100 µM
- GI50 (UACC-257 melanoma): 3.37 µM
- TGI (UACC-257 melanoma): 38.6 µM
- GI50 (UO-31 renal): 7.18 µM
- TGI (UO-31 renal): 67.1 µM

Compound: CC(C)(C)OC1=C(OC(C)(C)C)C(O)(c2ccc(Cl)cc2)C1=O (configuration not stated)
- TGI (HCT-15 colon): > 100 µM
- TGI (HT29 colon): > 100 µM
- TGI (LOX IMVI melanoma): > 100 µM
- TGI (NCI-H23 lung): > 100 µM
- TGI (UO-31 renal): > 100 µM

Compound: CCOC(=O)CCn1cnc(N)n1
- TGI (HCT-15 colon): > 100 µM
- TGI (HOP-62 NSCLC): > 100 µM
- TGI (HT29 colon): > 100 µM
- TGI (LOX IMVI melanoma): > 100 µM
- TGI (NCI-H23 lung): > 100 µM
- TGI (SK-MEL-2 melanoma): > 100 µM
- TGI (UACC-257 melanoma): > 100 µM
- TGI (UO-31 renal): > 100 µM

Compound: O=C1CCc2ccc(O)c(c2)Oc2ccc(cc2)[C@@H]2O[C@@H]2CO1
- TGI (HOP-62 NSCLC): > 100 µM
- TGI (HT29 colon): > 100 µM
- TGI (LOX IMVI melanoma): > 100 µM
- TGI (NCI-H23 lung): > 100 µM
- TGI (SK-MEL-2 melanoma): > 100 µM
- TGI (UACC-257 melanoma): > 100 µM
- TGI (UO-31 renal): > 100 µM

Compound: Cc1ccc(/C(=C/C=C(C#N)C#N)Sc2nc3ccccc3s2)cc1
- GI50 (DU-145 prostate): 4.18 µM
- TGI (DU-145 prostate): 14.5 µM
- GI50 (HOP-62 NSCLC): 10.1 µM
- TGI (HOP-62 NSCLC): 30.3 µM
- GI50 (MCF7 breast): 4.3 µM
- TGI (MCF7 breast): 32.7 µM
- GI50 (NCI-H23 lung): 3.36 µM
- TGI (NCI-H23 lung): 11.6 µM
- GI50 (SK-MEL-2 melanoma): 4.95 µM
- TGI (SK-MEL-2 melanoma): 27.1 µM
- GI50 (UACC-257 melanoma): 12.1 µM
- TGI (UACC-257 melanoma): 27.3 µM
- GI50 (UO-31 renal): 3.41 µM
- TGI (UO-31 renal): 22.5 µM

Compound: N#CC1=C(c2ccccc2)OC2(N)OC(c3ccccc3)=C(C#N)C12C#N (configuration not stated)
- TGI (HCT-15 colon): > 100 µM
- TGI (HOP-62 NSCLC): > 100 µM
- TGI (HT29 colon): > 100 µM
- TGI (LOX IMVI melanoma): > 100 µM
- TGI (NCI-H23 lung): > 100 µM
- TGI (SK-MEL-2 melanoma): > 100 µM
- TGI (UACC-257 melanoma): > 100 µM
- TGI (UO-31 renal): > 100 µM

Compound: CC[P+]1(c2ccccc2)CCCCC1
- TGI (HCT-15 colon): > 100 µM
- TGI (HOP-62 NSCLC): > 100 µM
- TGI (HT29 colon): > 100 µM
- TGI (LOX IMVI melanoma): > 100 µM
- TGI (NCI-H23 lung): > 100 µM
- TGI (SK-MEL-2 melanoma): > 100 µM
- TGI (UACC-257 melanoma): > 100 µM
- TGI (UO-31 renal): > 100 µM

Compound: Cc1ccc(NC(=O)CCC(=O)C2Cc3ccccc3C2=O)cc1C (configuration not stated)
- TGI (HCT-15 colon): > 100 µM
- TGI (HOP-62 NSCLC): > 100 µM
- TGI (HT29 colon): > 100 µM
- TGI (LOX IMVI melanoma): > 100 µM
- TGI (NCI-H23 lung): > 100 µM
- TGI (SK-MEL-2 melanoma): > 100 µM
- TGI (UACC-257 melanoma): > 100 µM
- TGI (UO-31 renal): > 100 µM

Compound: CN(C)CCNC(=O)c1cccc2c1nc(-c1ccncc1)c1ccccc12
- TGI (HCT-15 colon): 13.4 µM
- TGI (HOP-62 NSCLC): 19.5 µM
- TGI (HT29 colon): 19.4 µM
- TGI (LOX IMVI melanoma): 3.66 µM
- TGI (NCI-H23 lung): 13.1 µM
- TGI (SK-MEL-2 melanoma): 19.1 µM
- TGI (UACC-257 melanoma): 12.6 µM
- TGI (UO-31 renal): 6.08 µM

Compound: CSc1cc(C(C)(C)C)ccc1C(O)c1ccc(C(C)(C)C)cc1SC
- TGI (HCT-15 colon): 29.9 µM
- TGI (HOP-62 NSCLC): 27.3 µM
- TGI (HT29 colon): 19.6 µM
- TGI (LOX IMVI melanoma): 24.3 µM
- TGI (NCI-H23 lung): 29.8 µM
- TGI (SK-MEL-2 melanoma): 34.1 µM
- TGI (UACC-257 melanoma): 25.5 µM
- TGI (UO-31 renal): 18.6 µM

Compound: CC(=O)[CH-]C(=O)c1ccccc1.CC(=O)[CH-]C(=O)c1ccccc1.CC(=O)[CH-]C(=O)c1ccccc1.[Br-].[Zr+4]
- GI50 (HCT-15 colon): 89.7 µM
- TGI (HCT-15 colon): > 100 µM
- GI50 (HOP-62 NSCLC): 64 µM
- TGI (HOP-62 NSCLC): > 100 µM
- GI50 (HT29 colon): 48.3 µM
- TGI (HT29 colon): > 100 µM
- GI50 (LOX IMVI melanoma): 89.7 µM
- TGI (LOX IMVI melanoma): > 100 µM
- GI50 (NCI-H23 lung): > 100 µM
- TGI (NCI-H23 lung): > 100 µM
- GI50 (SK-MEL-2 melanoma): 38.5 µM
- TGI (SK-MEL-2 melanoma): > 100 µM
- GI50 (UACC-257 melanoma): 48.2 µM
- TGI (UACC-257 melanoma): > 100 µM

Compound: N#CCC(=O)Nc1ccccc1O
- TGI (HCT-15 colon): > 100 µM
- TGI (HOP-62 NSCLC): > 100 µM
- TGI (HT29 colon): > 100 µM
- TGI (NCI-H23 lung): > 100 µM
- TGI (SK-MEL-2 melanoma): > 100 µM
- TGI (UACC-257 melanoma): > 100 µM
- TGI (UO-31 renal): > 100 µM

Compound: N#CC(C#N)=C1CCC2C(=C(C#N)C#N)CCC12 (configuration not stated)
- TGI (HCT-15 colon): > 100 µM
- TGI (HOP-62 NSCLC): > 100 µM
- TGI (HT29 colon): > 100 µM
- TGI (LOX IMVI melanoma): > 100 µM
- TGI (NCI-H23 lung): > 100 µM
- TGI (UACC-257 melanoma): > 100 µM
- TGI (UO-31 renal): > 100 µM

Compound: CCOC(=O)c1cc(C(=O)c2cc(OC)c(OC)c(OC)c2)n2ccc(-c3cc[n+](CC(=O)c4cc(OC)c(OC)c(OC)c4)cc3)cc12
- GI50 (DU-145 prostate): 1.8 µM
- TGI (DU-145 prostate): 3.39 µM
- GI50 (HCT-15 colon): 2.62 µM
- TGI (HCT-15 colon): 7.93 µM
- GI50 (HT29 colon): 1.83 µM
- TGI (HT29 colon): 3.68 µM
- GI50 (SK-MEL-2 melanoma): 2.6 µM
- TGI (SK-MEL-2 melanoma): 7.12 µM
- GI50 (UACC-257 melanoma): 3.13 µM
- TGI (UACC-257 melanoma): 7.04 µM
- GI50 (UO-31 renal): 7.97 µM
- TGI (UO-31 renal): 26.5 µM

Compound: FC(F)(F)c1nc(Br)[nH]c1C(F)(F)F
- TGI (HCT-15 colon): > 100 µM
- TGI (HOP-62 NSCLC): 91.9 µM
- TGI (HT29 colon): > 100 µM
- TGI (LOX IMVI melanoma): > 100 µM
- TGI (NCI-H23 lung): > 100 µM
- TGI (SK-MEL-2 melanoma): > 100 µM
- TGI (UACC-257 melanoma): > 100 µM
- TGI (UO-31 renal): > 100 µM
